Experimental findings from PubChem BioAssay (NCI) are described below.

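In this assay, cells in 96-well plates receive the compound at five concentrations for 48 hours. Endpoints are linearly interpolated between the surrounding concentrations. TGI: concentration producing complete growth inhibition.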

Holding throughout (assay): NCI-60 cell line screen, 48 h
For assay [1], the system named is NCI-H460 lung.
Assay [2] deals with SF-268 CNS.
The subject of assay [3] is EKVX NSCLC.
The subject of assay [4] is SNB-78 CNS.
Assay [5] concerns HOP-18 NSCLC.
The test system of assay [6] is MOLT-4 leukemia.
Assay [7] deals with DMS 114 small cell lung.
Assay [8] deals with SNB-75 CNS.
The subject of assay [9] is HCC-2998 colon.
Assay [10] deals with M19-MEL melanoma.
In assay [11] the test system is UACC-257 melanoma.
Assay [12] relates to KM12 colon.

For `COc1ccc(/C(Cl)=C(\C=O)c2ccc(Cl)cc2)cc1OC`, the TGI is over 100 µM in assay [1]; over 100 µM in assay [2]; over 100 µM in assay [3]; over 100 µM in [4]; over 100 µM in assay [5]; 6.62 µM in [6]. For the same compound, the TGI in assay [7] came to 59.5 µM; in assay [8] it was 11.5 µM; in assay [9], 76.2 µM; in [10] it was 48.3 µM; in assay [11], 37.4 µM.
With `OC12c3ccccc3C1CCCCCC21OCCCO1` (configuration not stated), the TGI in [12], in assay [1], in assay [2], in assay [4], in assay [5] and in [6] was over 100 µM in each case. The TGI in [7], in [8], in assay [10] and in assay [11] was over 100 µM throughout.
In the case of `CC[n+]1c(/C=C/c2ccc(N(CCCl)CCCl)cc2)ccc2cc(I)ccc21`, the TGI in [1] was 10.1 µM; in [3], 12 µM; in assay [4] it was 36 µM; in assay [5] it was 8.54 µM; in assay [6] it was 3.03 µM; in assay [7], over 100 µM. For the same compound, the results for the TGI in assay [8], in [9] and in assay [11] were 0.903 µM, 2.58 µM and 2.61 µM, respectively.
`O=C(O)c1ccc(Nc2nc3nn(Cc4ccccc4)cc3c(=O)s2)cc1`: the TGI in assay [12], in [1], in assay [2], in assay [3], in assay [4] and in [5] was over 100 µM in each case. Besides, the TGI in [6], in [7], in assay [9], in [10] and in [11] was over 100 µM throughout.
Turning to `O/N=C\C(=Nc1ccc(Cc2ccc(N=C(/C=N\O)NO)cc2)cc1)NO`, the TGI in [12], in [1], in [2], in assay [3], in [4] and in assay [5] was over 100 µM each time. Moreover, the TGI in [6], in assay [7], in [9], in [10] and in assay [11] was over 100 µM throughout.
Consider `O=C(c1ccco1)N(C(=S)N1CCN(c2ccccn2)CC1)c1ccccc1`, for which the TGI in [12], in assay [1], in assay [2], in assay [4], in assay [5] and in assay [6] was over 100 µM in each case. Besides, the TGI in assay [7], in [8], in [10] and in assay [11] was over 100 µM each time.
